# Data: patent US20160176867A1, “MODIFIED BET-PROTEIN-INHIBITING DIHYDROQUINOXALINONES AND DIHYDROPYRIDOPYRAZINONES” (BAYER PHARMA AKTIENGESELLSCHAFT, priority 2013, published 2016)
# Experiments:
# [1] = target: T1, BRD4 bromo domain 1 [BRD4(1)] (Homo sapiens, UniProt O60885); test: BRD4/acetylated peptide H4 binding assay (TR-FRET), BRD4 bromo domain 1; details: inhibition of BRD4(1)/Ac-H4 peptide interaction
# T1 construct: N-terminally His6-tagged BRD4(1) (amino acids 67-152); made in house; host or cells: E. coli
# Outline: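 TR-FRET (665/620 nm ratio) measuring displacement of biotinylated tetra-acetylated H4 peptide from His6-BRD4(1) (aa 67-152, E. coli; typically 10 nM) at pH 7.5. Compound (11 concentrations, 0.1 nM–20 μM, duplicates) was preincubated 10 min at 22°C, then 1 h at 22°C and ≥3 h at 4°C; IC50 from 4-parameter fit normalized to DMSO and no-BRD4 controls.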
# [2] = target: T2, BRD4 bromo domain 2 [BRD4(2)] (Homo sapiens, UniProt O60885); test: BRD4/acetylated peptide H4 binding assay (TR-FRET), BRD4 bromo domain 2; details: inhibition of BRD4(2)/Ac-H4 peptide interaction
# T2 construct: N-terminally His6-tagged BRD4(2) (amino acids 357-445); made in house; host or cells: E. coli
# Outline: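 Binding of His6-BRD4(2) (aa 357-445, 100 nM final) to biotinylated tetra-acetylated H4 peptide read by TR-FRET (665/620 nm). Compound preincubated 10 min at 22 °C, then 1 h at 22 °C plus ≥3 h at 4 °C. Eleven concentrations (0.1 nM–20 μM) in duplicate; IC50 by 4-parameter fit.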
IC50 [1] [nM],IC50 [2] [nM],Structure (SMILES)
385,117,"C[C@@H]1C(=O)N(C)c2ccc(Nc3cccc(C(=O)N(C)C)c3)cc2N1Cc1ccccc1 [Example 107, 3-{[(3R)-4-benzyl-1,3-dimethyl-2-oxo-1,2,3,4-tetrahydroquinoxalin-6-yl]amino}-N,N-dimethylbenzamide]"
1290,320,"CC1C(=O)N(C)c2ccc(N(C)c3cccc(S(=O)(=O)N(C)C)c3)cc2N1Cc1ccccc1 (stereo not drawn) [Example 110, 3-[(4-benzyl-1,3-dimethyl-2-oxo-1,2,3,4-tetrahydroquinoxalin-6-yl)(methyl)amino]-N,N-dimethylbenzenesulphon-amide]"
555,462,"C[C@@H]1C(=O)N(C)c2ccc(Nc3cccc(C(=O)NC4CCN(C)CC4)c3)nc2N1C1CCN(C(=O)OC(C)(C)C)CC1 [Example 100, tert-butyl 4-[(3R)-1,3-dimethyl-6-({3-[(1-methylpiperidin-4-yl)carbamoyl]phenyl}amino)-2-oxo-2,3-dihydropyrido[2,3-b]pyrazin-4(1H)-yl]piperidine-1-carboxylate]"
467,115,"CC(C)N1c2nc(Nc3cccc(C(=O)NC4CCN(C)CC4)c3)ccc2N(C)C(=O)[C@H]1C [Example 94, 3-{[(3R)-4-isopropyl-1,3-dimethyl-2-oxo-1,2,3,4-tetrahydropyrido[2,3-b]pyrazin-6-yl]amino}-N-(1-methylpiperidin-4-yl)benzamide]"
379,706,"C[C@@H]1C(=O)N(C)c2ccc(Nc3cccc(C(=O)NC4CCN(C)CC4)c3)nc2N1c1ccc(F)cc1 (stereo in doubt) [Example 115, 3-{[(3R)-4-(4-fluorophenyl)-1,3-dimethyl-2-oxo-1,2,3,4-tetrahydropyrido[2,3-b]pyrazin-6-yl]amino}-N-(1-methylpiperidin-4-yl)benzamide]"
386,589,"Cc1cccc(N2c3nc(Nc4cccc(S(=O)(=O)NC5CCN(C)CC5)c4)ccc3N(C)C(=O)C2C)c1 (stereo not drawn) [Example 65, 3-{[1,3-dimethyl-4-(3-methylphenyl)-2-oxo-1,2,3,4-tetrahydropyrido-[2,3-b]pyrazin-6-yl]amino}-N-(1-methylpiperidin-4-yl)benzenesulphonamide]"
196,247,"C[C@@H]1C(=O)N(C)c2ccc(Nc3cccc(C(=O)NC4CCC(NC5CCN(C)CC5)CC4)c3)nc2N1C1CCOCC1 (stereo partly drawn) [Example 80, 3-{[(3R)-1,3-dimethyl-2-oxo-4-(tetrahydro-2H-pyran-4-yl)-1,2,3,4-tetrahydropyrido[2,3-b]pyrazin-6-yl]amino}-N-{4-[(1-methylpiperidin-4-yl)amino]cyclohexyl} benzamide]"
617,195,"COCCN1c2nc(Nc3cccc(C(=O)N[C@H]4CC[C@H](N5CCN(CC6CC6)CC5)CC4)c3)ccc2N(C)C(=O)[C@H]1C [Example 101, N-{trans-4-[4-(cyclopropylmethyl)piperazin-1-yl]cyclohexyl}-3-{[(3R)-4-(2-methoxyethyl)-1,3-dimethyl-2-oxo-1,2,3,4-tetrahydropyrido-[2,3-b]pyrazin-6-yl]amino}benzamide]"
1110,308,"C[C@@H]1C(=O)N(C)c2ccc(Nc3cccc(S(=O)(=O)N4CCN(CC(F)(F)F)CC4)c3)nc2N1C1CCN(C(=O)OC(C)(C)C)CC1 [Example 66, tert-butyl 4-[(3R)-1,3-dimethyl-2-oxo-6-[(3-{[4-(2,2,2-trifIuoroethyl)-piperazin-1-yl]sulphonyl}-phenl)amino]-2,3-dihydropyrido[2,3-b]pyrazin-4(1H)-yl]piperidine-1-carboxylate]"
475,277,"C[C@@H]1C(=O)N(C)c2ccc(Nc3cccc(C(=O)NC4CCN(C)CC4)c3)nc2N1C1CCCCC1 [Example 95, 3-{[(3R)-4-cyclohexyl-1,3-dimethyl-2-oxo-1,2,3,4-tetrahydropyrido[2,3-b]pyrazin-6-yl]amino}-N-(1-methylpiperidin-4-yl)benzamide]"
4380,5190,"CC1C(=O)N(C)c2ccc(Nc3cccc(S(=O)(=O)N4CCN(C)CC4)c3)nc2N1c1ccc(N2CCN(C(=O)OC(C)(C)C)CC2)cc1 (stereo not drawn) [Example 67, tert-butyl 4-{4-[1,3-dimethyl-6-({3-[(4-methylpiperazin-1-yl)sulphonyl]phenl}-amino)-2-oxo-2,3-dihydropyrido[2,3-b]pyrazin-4(1H)-yl]phenyl}piperazine-1-carboxylate]"
708,157,"C[C@@H]1C(=O)N(C)c2ccc(Nc3cccc(C(=O)N[C@H]4CC[C@H](N5CCN(CC6CC6)CC5)CC4)c3)cc2N1Cc1c(F)cccc1F [Example 22, N-{trans-4-[4-(Cyclopropylmethyl)piperazin-1-yl]cyclohexyl}-3-{[4-(2,6-difluorobenzyl)-1,3-dimethyl-2-oxo-1,2,3,4-tetrahydroquinoxalin-6-yl]amino}benzamide]"
206,178,"C[C@@H]1C(=O)N(C)c2ccc(Nc3cccc(C(=O)N4CCN(C)CC4)c3)nc2N1C1CCNCC1 [Example 130, (3R)-1,3-dimethyl-6-({3-[(4-methylpiperazin-1-yl)carbonyl]phenyl}amino)-4-(piperidin-4-yl)-3,4-dihydropyrido[2,3-b]pyrazin-2(1H)-one]"
208,48,"COc1ccc(CN2c3cc(Nc4cccc(S(=O)(=O)N5CCOCC5)c4)ccc3N(C)C(=O)[C@H]2C)cc1 [Example 11, (3R)-4-(4-Methoxybenzyl)-1,3-dimethyl-6-{[3-(morpholin-4-ylsulphonyl)phenyl]amino}-3,4-dihydroquinoxalin-2(1H)-one]"
5300,57,"COCCN1c2nc(Nc3cccc(S(=O)(=O)N4CCOCC4)c3)ccc2N(C)C(=O)[C@@H]1C (stereo in doubt) [Example 112, (3S)-4-(2-methoxyethyl)-1,3-dimethyl-6-{[3-(morpholin-4-ylsulphonyl)phenyl]amino}-3,4-dihydropyrido[2,3-b]pyrazin-2(1H)-one]"
357,817,"C[C@@H]1C(=O)N(C)c2ccc(Nc3cccc(C(=O)N4CCN(C)CC4)c3)cc2N1C1CCOCC1 [Example 106, (3R)-1,3-dimethyl-6-({3-[(4-methylpiperazin-1-yl)carbonyl]phenyl}amino)-4-(tetrahydro-2H-pyran-4-yl)-3,4-dihydroquinoxalin-2(1H)-one]"
742,428,"COCCN1c2nc(Nc3cccc(C(=O)NC4CCN(C)CC4)c3)ccc2N(C)C(=O)[C@H]1C (stereo in doubt) [Example 119, 3-{[(3R)-4-(2-methoxyethyl)-1,3-dimethyl-2-oxo-1,2,3,4-tetrahydropyrido[2,3-b]pyrazin-6-yl]amino}-N-(1-methylpiperidin-4-yl)benzamide]"
208,166,"C[C@@H]1C(=O)N(C)c2ccc(Nc3cccc(S(=O)(=O)N(C)C)c3)nc2N1C1CCN(C(=O)OC(C)(C)C)CC1 [Example 61, tert-butyl 4-[(3R)-6-{[3-(dimethylsulphamoyl)-phenyl]amino}-1,3-dimethyl-2-oxo-2,3-dihydropyrido[2,3-b]pyrazin-4(1H)-yl]piperidine-1-carboxylate]"
